The values below come from the supplement of paper PMC10307832.

Assay in all cases: relative viability (nuclei count vs DMSO), 5 days (fraction); higher = more cells survive
Compound in the test “CX-5461 + Luminespib”: Cc1cnc(CNC(=O)c2c(=O)c3ccc(N4CCCN(C)CC4)nc3n3c2sc2ccccc23)cn1 [CX-5461] + CCNC(=O)c1noc(-c2cc(C(C)C)c(O)cc2O)c1-c1ccc(CN2CCOCC2)cc1 [Luminespib] (partner 0.01 µM)
An outline of the steps: (§1)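 Nuclei were stained with Hoechst during a one-step fixation (final 0.05% Triton X-100, 1% formaldehyde, 1 ug/ml Hoechst) carried out 5 days after dosing, then counted on 4× images. The cells, lung cancer lines in 1536-well plates, had been dosed by pin tool the day after seeding with one drug alone or a fixed anchor-drug dose plus five library-drug doses (not always all listed) in √10 steps. Relative viability is the nuclei count in treated wells divided by that in vehicle wells, and each value is the median of duplicate plates.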

Compound in the test “IMD-0354 + Palbociclib”: O=C(Nc1cc(C(F)(F)F)cc(C(F)(F)F)c1)c1cc(Cl)ccc1O [IMD-0354] + CC(=O)c1c(C)c2cnc(Nc3ccc(N4CCNCC4)cn3)nc2n(C2CCCC2)c1=O [Palbociclib] (partner 0.5 µM)
An outline of the steps:
as §1

Compound in the test “IMD-0354 + Phenformin”: O=C(Nc1cc(C(F)(F)F)cc(C(F)(F)F)c1)c1cc(Cl)ccc1O [IMD-0354] + N=C(N)NC(=N)NCCc1ccccc1 [Phenformin] (partner 250 µM)
An outline of the steps: as §1

Compound in the test “IMD-0354 + Olaparib”: O=C(Nc1cc(C(F)(F)F)cc(C(F)(F)F)c1)c1cc(Cl)ccc1O [IMD-0354] + O=C(c1cc(Cc2n[nH]c(=O)c3ccccc23)ccc1F)N1CCN(C(=O)C2CC2)CC1 [Olaparib] (partner 8 µM)
An outline of the steps: as §1

For UMC-11, the relative viability worked out at 1.01 with CX-5461 + Luminespib (first compound 0.01 µM); 0.931 with CX-5461 + Luminespib (first compound 0.03162 µM); 0.965 with CX-5461 + Luminespib (first compound 0.1 µM); 0.951 in the test with CX-5461 + Luminespib (first compound 0.3162 µM); 0.423 with CX-5461 + Luminespib (first compound 1 µM); 0.344 in the test with IMD-0354 + Palbociclib (first compound 0.04 µM). The relative viability with IMD-0354 + Palbociclib (first compound 0.1265 µM) stood at 0.303; in the test with IMD-0354 + Palbociclib (first compound 0.4 µM), 0.323; in the test with IMD-0354 + Palbociclib (first compound 1.265 µM), 0.215; with IMD-0354 + Palbociclib (first compound 4 µM), 0.18; in the test with IMD-0354 + Phenformin (first compound 0.04 µM), 0.321; with IMD-0354 + Phenformin (first compound 0.1265 µM), 0.229. Moreover, the relative viability was determined as 0.202 with IMD-0354 + Phenformin (first compound 0.4 µM); 0.167 with IMD-0354 + Phenformin (first compound 1.265 µM); 0.181 with IMD-0354 + Phenformin (first compound 4 µM); 0.368 in the test with IMD-0354 + Olaparib (first compound 0.04 µM); 0.332 with IMD-0354 + Olaparib (first compound 0.1265 µM); 0.278 with IMD-0354 + Olaparib (first compound 0.4 µM). Moreover, the relative viability in the test with IMD-0354 + Olaparib (first compound 1.265 µM) came to 0.182; with IMD-0354 + Olaparib (first compound 4 µM), 0.178.
